Source: publication PMC10451299, “Phytochemical Constituents and Biological Activity of Wild and Cultivated Rosmarinus officinalis Hydroalcoholic Extracts” (Antioxidants, 2023)
Marks after values point to notes of the source that are not given here.

How the values were obtained:
[1] = DPPH radical scavenging assay; conditions: mean ± SD, three experiments
Procedure: The antiradical activity was determined using the stable 1,1-diphenyl-2-picrylhydrazyl radical (DPPH) following the protocol of Brand-Williams with some modifications reported by De Martino and coworkers.

[2] = FRAP (ferric ion reducing antioxidant power) assay; conditions: mean ± SD, three experiments
AChE = conditions: cited from earlier work

| SMILES | DPPH IC50 (concentration required to reduce the absorbance of DPPH by 50%) [1] | FRAP [2] | activity on AChE (AChE) | effect on the AChE enzyme (AChE) |
| --- | --- | --- | --- | --- |
| Cc1c(C)c2c(c(C)c1O)CCC(C)(C(=O)O)O2 (stereo not shown) [Trolox, 6-hydroxy-2,5,7,8-tetramethylchroman-2-carboxylic acid] | 3.65 ± 0.08 ^c µg/mL | 5.48 ± 0.34 ^a mmol Fe^2+ Equivalents/g Extract | – | – |
| COc1ccc(-c2cc(=O)c3c(O)c(OC)c(OC)cc3o2)cc1 [salvigenin, Salvigenin] | – | – | not active | stimulating effect |
